Results: patent publication US20230020320A1, “Liquid Composition for Cleaning, Sanitizing and/or Disinfecting” (CORTICALIS AS, priority 2020, published 2023)
“Also recorded” adds a separate entry of the source. Read-outs that look alike come from different tables or passages of the source.

Legend:
[1] = test system: non-spore forming bacteria; conditions: in less than 30 seconds, in the laboratory and on human skin; cited from earlier work
S. epidermidis [2] = test: Regrowth of luciferase-harbouring bacteria on sanitized titanium surfaces, fluorometer; type: cell-based; conditions: 5 minutes in sanitizing solution; for Time until regrowth of the biofilm after cleaning: then BHI medium at 37 centigrade, hourly reading
Method: Regrowth of S. epidermidis after sanitizing a contaminated titanium surface Regrowth of S. epidermidis bacteria harbouring the luciferase gene making them fluorescent, on sanitized titanium surfaces. Surfaces was first contaminated with bacteria and incubated in BHI broth until the surfaces were completely covered in biofilm. The titanium discs were then submerged in sanitizing solution and left on a slow shaker for 5 minutes. After sanitizing the discs were rinsed in a large volume of sterile water, then covered by BHI medium again and incubated at 37 centigrade. At hourly intervals the discs were placed in a fluorometer to measure regrowth of bacteria by amount of fluorescent as compared to an untreated calibrated control and a sterile disc.

[3] = cited from earlier work
S. epidermidis [4] = test: Staining of living and dead bacteria on decontaminated titanium surfaces, confocal microscope; type: cell-based; conditions: submerged in sanitizing solution 5 minutes on slow shaker
Method: Titanium surfaces contaminated with S. epidermidis bacteria and grown to biofilm in BHI broth was removed from growth medium and submerged in sanitizing solution for 5 minutes on a slow shaker. Discs were sanitized with A) saline (Negative control), B) Chlorhexidine 0.2% w/v, or C) H2O2 3% v/v+f-127 pluronic Acid 5% w/v. After cleaning the surfaces were stained with fluorescent dyes, green for living microbes and red for dead microbes. […] Surfaces were visualized in a confocal microscope after cleaning and staining (FIG. 4).

SMILES | Non-spore forming bacteria killed [1] | Time until regrowth of the biofilm after cleaning (S. epidermidis [2]) | Effect on wound healing ([3]; 0.03% v/v solution, only if not applied repeatedly) | Effect on wound healing ([3]; 0.5% v/v solution) | Biofilm remaining on the surface (S. epidermidis [2]) | Killing of bacteria (S. epidermidis [2]) | Killing of microbes (green living / red dead staining) (S. epidermidis [4]) | Removal of biofilm/contamination from titanium surface (S. epidermidis [4])
CC(C)O [Isopropyl alcohol] | ≥ 99.99% |  |  |  |  |  |  | 
OO [hydrogen peroxide, Hydrogen peroxide] |  | about 13 hours | may induce healing | impede healing |  |  |  | 
N=C(NCCCCCCNC(=N)NC(=N)Nc1ccc(Cl)cc1)NC(=N)Nc1ccc(Cl)cc1 [Chlorhexidine 0.2% w/v, Chlorhexidine] |  | no regrowth observed |  |  | the dead biofilm stuck and remained on the surface | killed all bacteria | killed all microbes; also recorded: killed all bacteria | left the dead cells to contaminate the surface; also recorded: left them to contaminate the surface
